Values of other authors in patent US20230191113A1, “METHOD AND APPARATUS FOR CANCER TREATMENT” (Minnesota Medical Physics LLC, priority 2020, published 2023).

Columns and labels:
cancer tumors = settings: cited from earlier work
A3 receptors = target: T1, A3 receptors (Homo sapiens, UniProt P0DMS8); settings: allosteric enhancer added to A3AR agonist; cited from earlier work
T1 sequence (P0DMS8 1-318): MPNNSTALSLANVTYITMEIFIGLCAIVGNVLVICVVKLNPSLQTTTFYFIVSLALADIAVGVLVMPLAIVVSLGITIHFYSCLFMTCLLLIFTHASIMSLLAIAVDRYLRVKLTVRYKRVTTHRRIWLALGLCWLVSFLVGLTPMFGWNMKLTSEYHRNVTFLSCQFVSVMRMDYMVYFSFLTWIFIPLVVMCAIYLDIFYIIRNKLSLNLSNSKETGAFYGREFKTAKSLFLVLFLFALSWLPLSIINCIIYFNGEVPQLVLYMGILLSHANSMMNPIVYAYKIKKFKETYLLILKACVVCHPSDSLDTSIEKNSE

Row | SMILES | increase of the apoptotic rate by one-dimensional EFS (cancer tumors; CL-IB-MECA plus one-dimensional EFS) | effect on growth of cancer tumors (cancer tumors; multiple studies, significant dose of A3AR agonist alone) | increase of the maximum efficacy of A3 receptors agonists (A3 receptors)
1 | CNC(=O)[C@H]1O[C@@H](n2cnc3c(NCc4cccc(I)c4)nc(Cl)nc32)[C@H](O)[C@@H]1O [CL-IB-MECA] | 0.4 factor | slowed down the growth of cancer tumors | –
2 | Clc1ccc(Nc2nc3ccccc3c3nc(C4CCCCC4)[nH]c23)cc1Cl [LUF6000] | – | – | 45%
